The assay relates to immobilized GST-tagged bait protein domains. As to the kind of experiment: ProP-PD phage selections (HD2 P8, sublibraries, HD2 P3, HD1 P8) with NGS and confidence level. The format is binding, human.
[1] abbreviates: HD2 library, bait SUMO1_SUMO__P63165_1_101, known motif instance of the benchmarking set found (TRUE) or not found (FALSE) among selected peptides.
[2] abbreviates: library HD2, bait EPS15_EH__P42566_121_215, whether the validated benchmark motif instance was recovered in the ProP-PD selection (TRUE/FALSE).
Where [3] appears, read: bait MAP1LC3A_ATG8 (Q9H492 2-121), HD2 library, benchmark motif instance recovered in the ProP-PD selection (TRUE/FALSE).
Where [4] appears, read: bait MAP1LC3B_ATG8 (Q9GZQ8 2-119), HD2 library, benchmark motif instance recovered in the ProP-PD selection (TRUE/FALSE).
Setting [5] is: bait KPNA4_Arm (O00629 68-487), HD2 library, benchmark motif instance recovered in the ProP-PD selection (TRUE/FALSE).
Setting [6] is: bait CRK_SH3_1_P46108_124_198, library HD2, benchmarking set of validated motif instances, TRUE = motif instance recovered in the ProP-PD selection.
The mark [7] stands for this setting: HD2 library, bait TNKS_TANK-peptide-bind__O95271_174_649, known motif instance of the benchmarking set found (TRUE) or not found (FALSE) among selected peptides.
[8] abbreviates: bait OXSR1___O95747_434_527, HD2 library, confidence level (1-4) of best matching selected peptide.
[9] abbreviates: bait OXSR1___O95747_434_527, HD2 library, specificity score of best matching selected peptide.
Where [10] appears, read: bait OXSR1___O95747_434_527, HD2 library, whether the validated benchmark motif instance was recovered in the ProP-PD selection (TRUE/FALSE).
Where [11] appears, read: library HD2, bait EPS15_EH__P42566_121_215, best matching peptide.
[12] abbreviates: library HD2, bait EPS15_EH__P42566_121_215, confidence level of best matching peptide (4 High, 2-3 Medium, 1 Low).
The mark [13] stands for this setting: library HD2, bait YAP1_WW_1_P46937_169_207, validated benchmark motif instance, in_library_check TRUE, TRUE/FALSE = instance recovered in ProP-PD selection.

SPSLPNITLGLPATGP gave an HD confidence (bait ANKRA2_Ank__Q9H9E1_142_313, HD1 P8 library, confidence level (4 = High, 2-3 = Medium, 1 = Low)) of 4. The same substance showed an HD mean counts (bait ANKRA2_Ank__Q9H9E1_142_313, HD1 P8 library, mean NGS counts over replicate selections) of 701.75. Besides, where the note is “bait ANKRA2_Ank__Q9H9E1_142_313, HD1 P8 library, mean proportion of NGS counts”, the HD count proportions turned out to be 0.06192.

SQKGNISETIVIDDEEDIETNGGA: under setting [1], the motif_found entry is listed as “FALSE”.

With SQPAGISTNPFMTGPSSSP, the motif_found entry under setting [2] is “FALSE”.

On to SQPVMRPPNPFGPVSGAQI, for which, under setting [2], the motif_found result is on record as “FALSE”.

For SQRIQTNNNPFQVPIEEQR [RELA 138-142], the motif_found result (HD2 library, bait EPS15_EH__P42566_121_215, benchmark motif instance, in_library_check FALSE, in_library_coverage 0) is recorded as “FALSE”.

With SQSSASSEDYIIILPECFDT, the motif_found result runs as follows: under setting [3], “FALSE”; under setting [4], “FALSE”.

As to SRHAQEPPAKRRKGSKGPEG-, the motif_found entry under setting [5] is “FALSE”.

Take SRWEVIANYMNIHSSS: the HD2-1mM_CaCl confidence (bait CALM1 EF-hand (P0DP23, 2-149), HD2 library selection with 1mM_CaCl, confidence level (4 = High, 2 or 3 = Medium, 1 = Low)) is 3. Under “bait CALM1 EF-hand (P0DP23, 2-149), HD2 library selection, confidence level (4 = High, 2 or 3 = Medium, 1 = Low)”, the HD2 confidence is 3.

For SSDGTCVAARTRPVLSCKKRR, the motif_found entry (library HD2, bait WDR5_WD_1234567_P61964_21_334, validated benchmark motif instance, in_library_check TRUE, TRUE/FALSE = instance recovered in ProP-PD selection) is listed as “FALSE”.

For the substance SSGSSEDSFVEIRMAEGEA, the motif_found entry under setting [3] is reported as “FALSE” and the motif_found entry under setting [4] is “FALSE”.

Turning to SSHRKTKKPLPPTPEEDQILK, the motif_found result (library HD2, bait YES1_SH3__P07947_90_152, validated benchmark motif instance, in_library_check TRUE, TRUE/FALSE = instance recovered in ProP-PD selection) is “FALSE”.

SSKPNQKKLIVLSDSEVIQLSDG: under setting [1], the motif_found result is listed as “FALSE”.

For the substance SSLEEPHSPETGEKVVAGEV, the motif_found result (library HD2, bait Keap1_KELCH__Q14145_321_609, whether the validated benchmark motif instance was recovered in the ProP-PD selection (TRUE/FALSE)) was “FALSE”.

On to SSNPPTSVPTAPALSSVIAP, for which the motif_found result (HD2 library, bait TSG101_UEV__Q99816_1_145, known motif instance of the benchmarking set found (TRUE) or not found (FALSE) among selected peptides) is reported as “FALSE”.

Consider SSSSASGSYGHLSASAISPALS, for which the motif_found result (bait SUFU_SUFU__Q9UMX1_1_484, HD2 library, whether the validated benchmark motif instance was recovered in the ProP-PD selection (TRUE/FALSE)) is reported as “FALSE”.

As for STAQEQDDVLIVDSDEEDSSNNADV, the motif_found entry under setting [1] is listed as “FALSE”.

Consider STASKGRYIPPHLRNREATKG, for which, where the note is “library HD2, bait EIF4E_eIF4E__P06730_1_217, whether the validated benchmark motif instance was recovered in the ProP-PD selection (TRUE/FALSE)”, the motif_found entry is on record as “FALSE”.

For the substance SVEFLDLAHSSESQETISS, where the note is “library HD2, bait USP7_MATH-TRAF__Q93009_53_206, validated benchmark motif instance, in_library_check TRUE, TRUE/FALSE = instance recovered in ProP-PD selection”, the motif_found result is “FALSE”.

SVVSPPELPPRNIPLT: the HD confidence (bait CRK_SH3_1_P46108_124_198, library HD) is recorded as 2. In addition, the HD2 confidence (bait CRK_SH3_1_P46108_124_198, library HD2 P8) was 4. The substance also came in with an HD2_cytoplasm confidence (bait CRK_SH3_1_P46108_124_198, library HD2 P8 cytoplasm) of 4. The substance further returned an HD2_nc confidence (bait CRK_SH3_1_P46108_124_198, library HD2 P8 nucleocytoplasmic) of 2. The same substance registered an HD2_nc count proportions (bait CRK_SH3_1_P46108_124_198, library HD2 P8 nucleocytoplasmic, mean normalised NGS counts) of 6.106e-06. Under “bait CRK_SH3_1_P46108_124_198, library HD2 P8 nucleocytoplasmic, mean raw NGS counts, all selections”, this substance returned an HD2_nc mean counts of 1.0. The HD count proportions (bait CRK_SH3_1_P46108_124_198, library HD, mean normalised NGS counts) was 0.0001782. The HD mean counts (bait CRK_SH3_1_P46108_124_198, library HD, mean raw NGS counts, all selections) was determined as 3.0.

In turn, SWVAFAHTGAWGTGLP yielded an HD2 confidence (bait AP2B1_adaptin__P63010_700_937, HD2 P8 selection, non primary paralogue peptide match, confidence level -4 to 4: 4 = High, 3 or 2 = Medium, 1 = Low, 0 = Filtered/Noise) of 4.

In the case of “TDEVPVPPPVPPRRRPESAP,DEVPVPPPVPPRRRPESAPA [SOS1]”, the motif_found result under setting [6] is given as “FALSE”.

Consider TDYRPPDDAVFDIITDEELCQ, for which, under setting [4], the motif_found result was “FALSE”.

Turning to TFNSYRKEWEELFVNNNYL [TBC1D5 58-62], the motif_found result is “FALSE” (HD2 library, bait MAP1LC3A_ATG8__Q9H492_2_121, benchmark motif instance, in_library_check FALSE, in_library_coverage 0) and “FALSE” (HD2 library, bait MAP1LC3B_ATG8__Q9GZQ8_2_119, benchmark motif instance, in_library_check FALSE, in_library_coverage 0).

Take TGQPTKVGRFQVTTTA: where the note is “bait OXSR1___O95747_434_527, HD2 P8 cytoplasm sublibrary, confidence level (4 = High, 2-3 = Medium, 1 = Low)”, the HD2_cytoplasm confidence stood at 4.

As for THHNQASDIIVISSEDSEGSTDVDE, under setting [1], the motif_found entry is recorded as “FALSE”.

Regarding TKSTVTGERQSGDGQESTEPVE, under setting [7], the motif_found result is reported as “FALSE”.

TKVGRFQVTTTANKVG yielded a best_confidence under setting [8] of 4. The best_specificity under setting [9] was determined as 1. For the same substance, the motif_found entry under setting [10] is given as “TRUE”.

TLALPSLVPQNYTENK: for the setting “bait ANKRA2_Ank__Q9H9E1_142_313, library HD”, the HD confidence is reported as 2. In addition, the HD count proportions (bait ANKRA2_Ank__Q9H9E1_142_313, library HD, mean normalised NGS counts) is given as 0.0001017. The substance also registered an HD mean counts (bait ANKRA2_Ank__Q9H9E1_142_313, library HD, mean raw NGS counts, all selections) of 1.75.

With TLDDSDEDVILVESQDPPLPS, the motif_found entry under setting [1] is listed as “FALSE”.

As to TLVSPKLPSLEAPTSA, the HD2 confidence (bait ANKRA2_Ank__Q9H9E1_142_313, HD2 P8 selection, confidence level -4 to 4: 4 = High, 3 or 2 = Medium, 1 = Low, 0 = Filtered/Noise) was determined as 3.

Take “TNAYKLPLAVGPPSLNYIPPVLQLS,LAVGPPSLNYIPP [TEX14]”: the motif_found entry (bait CEP55_EABR__Q53EZ4_160_217, library HD2, benchmarking set of validated motif instances, TRUE = motif instance recovered in the ProP-PD selection) is recorded as “TRUE”.

For TNGAMNVEIGNPTYKMYEGGEP, where the note is “HD2 library, bait TLN1_PTB__Q9Y490_309_401, known motif instance of the benchmarking set found (TRUE) or not found (FALSE) among selected peptides”, the motif_found entry is “FALSE”.

For the setting “library HD, bait AP2B1_adaptin__P63010_700_937, ProP-PD peptides with disease-related mutations”, TNLYWPGTAEPLLVSS yielded a confidence of 2.

TNPFLNETLQDVQPSP had a best_specificity under setting [11] of 1. The best_confidence under setting [12] came to 4. Further, the motif_found entry under setting [2] is recorded as “TRUE”.

On to TNPFQPAPPATLTLNQ, for which, under setting [11], the best_specificity is on record as 1. Besides, the best_confidence under setting [12] is 4. Further, under setting [2], the motif_found entry is “TRUE”.

Take TPDSRRVARPPPIGAEVPDVTA: the motif_found result under setting [7] is “FALSE”.

Take TPGAALSWQAAIDAARQAKLMG [CACNA1C]: the motif_found entry (bait CALM1_EF-hand__P0DP23_2_149, library HD2, benchmarking set of validated motif instances, TRUE = motif instance recovered in the ProP-PD selection) is “FALSE”.

As to TPPGAKASNPFLPGGGPAT, the motif_found entry under setting [2] is “FALSE”.

TPPPPYTVAPGRPLTA came in with a best_confidence (library HD2, bait YAP1_WW_1_P46937_169_207, confidence level of best matching selected peptide (4 High, 2-3 Medium, 1 Low)) of 4. The substance further had a best_specificity (library HD2, bait YAP1_WW_1_P46937_169_207, specificity score of best matching selected peptide) of 1. The motif_found result under setting [13] is given as “TRUE”.

Consider TPSYSISSTLNPQAPEFILGCTASKIT, for which, where the note is “bait PABP-B_PABP__P11940_544_623, HD2 library, whether the validated benchmark motif instance was recovered in the ProP-PD selection (TRUE/FALSE)”, the motif_found result is “FALSE”.

Substance TPYTAYPPPAQAYGIP yielded an HD2_nc confidence (bait CEP55_EABR__Q53EZ4_160_217, HD2 P8 nucleocytoplasmic sublibrary, confidence level (4 = High, 2-3 = Medium, 1 = Low)) of 4. Where the note is “bait CEP55_EABR__Q53EZ4_160_217, HD2 P8 nucleocytoplasmic sublibrary, mean NGS counts over replicate selections”, this substance gave an HD2_nc mean counts of 482.0. For the setting “bait CEP55_EABR__Q53EZ4_160_217, HD2 P8 nucleocytoplasmic sublibrary, mean proportion of NGS counts”, this substance showed an HD2_nc count proportions of 0.008703.

Regarding TQRSKPQPAVPPRPSADLIL [NCF1], the motif_found result under setting [6] is “FALSE”.

In the case of TQVPGTPPPKYNTLRLER, the motif_found entry was “FALSE” (bait NEDD4_WW_4_P46934_890_928, HD2 library, whether the validated benchmark motif instance was recovered in the ProP-PD selection (TRUE/FALSE)) and “FALSE” under setting [13].

Turning to TRKKTFKEVANAVKISASLMGT, the motif_found entry (library HD2, bait CALM1_EF-hand__P0DP23_2_149, motif instance NOT in library (in_library_check FALSE, in_library_coverage 0)) was “FALSE”.

Regarding TSNNRLLNKRRKKQAGSSSA, under setting [5], the motif_found entry was “FALSE”.

TTTANKVGRFSVSKTE: under setting [8], the best_confidence was determined as 2. Also, under setting [9], the best_specificity was 1. Besides, the motif_found result under setting [10] was “TRUE”.

Regarding TVNNCAQDRESPDGSYTEEQSQ, the motif_found result under setting [7] is listed as “FALSE”.

In the case of VDLTHNDSVVIVDERRRPRRN, the motif_found entry under setting [1] is on record as “FALSE”.

These data come from publication PMC8769072, “Proteome‐scale mapping of binding sites in the unstructured regions of the human proteome” (Molecular Systems Biology, 2022).
